Source: patent US10005731B2, “Modulators of the retinoid-related orphan receptor gamma (ROR-gamma) for use in the treatment of autoimmune and inflammatory diseases” (Glaxo Group Limited, priority 2012, dated 2018)
Read-outs that look alike come from different tables or passages of the source.

Key:
RORγ = target: T1, RORγ (Homo sapiens, UniProt P51449); assay: Jurkat cell luciferase assay (human IL17 promoter reporter, RORγt overexpression); assay type: cell-based; conditions: mean pIC50; detection limit of the assay 5
T1 construct: expressed in transfected cells
T1 sequence (P51449 1-497 isoform P51449-2): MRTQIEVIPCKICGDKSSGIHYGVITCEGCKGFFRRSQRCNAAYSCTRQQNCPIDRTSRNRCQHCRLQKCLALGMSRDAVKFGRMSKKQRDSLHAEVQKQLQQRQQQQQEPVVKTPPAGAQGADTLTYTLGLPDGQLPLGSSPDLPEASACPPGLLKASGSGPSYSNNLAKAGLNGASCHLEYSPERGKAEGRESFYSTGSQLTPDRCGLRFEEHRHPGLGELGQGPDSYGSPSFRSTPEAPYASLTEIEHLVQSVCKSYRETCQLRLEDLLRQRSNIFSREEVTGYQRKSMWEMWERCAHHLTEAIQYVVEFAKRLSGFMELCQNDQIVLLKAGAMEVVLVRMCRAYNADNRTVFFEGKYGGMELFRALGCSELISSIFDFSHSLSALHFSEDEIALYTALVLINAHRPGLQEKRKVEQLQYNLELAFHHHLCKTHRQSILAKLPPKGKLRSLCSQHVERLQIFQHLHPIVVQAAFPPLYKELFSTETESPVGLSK
Excerpt: RORγ is known to bind to a CNS (conserved non-coding sequences) enhancer element in the IL17 promoter. In this assay, RORγ activity is indirectly assessed using a luciferase reporter construct which contains the human IL17 promoter having the RORγ-specific CNS enhancer element. Inhibition of RORγ activity by a compound will result in a decrease in luciferase activity of Jurkat cells transfected with the reporter construct.
. For the 1.1 Kb fragment, PCR was used to amplify human IL17 proximal promoter region from genomic DNA of 293T cells using primers as follows: forward primer, 5′-[…]-3′ (SEQ ID NO. 4) (Xhol site is underlined) and reverse primer, 5′-[…]-3′ SEQ ID NO. 5) (HindIII site is underlined). The 1.1 kb DNA bands were excised, purified, and inserted into pMD19-T Simple Vector (Takara). After DNA sequencing confirmation, the 1.1 kb DNA was digested with XhoI and HindIII and inserted into XhoI/HindIII sites of pGL4.31[luc2P/GAL4UAS/Hygro] (Promega) to generate the pIL17-lkb-luc reporter construct. For the 1.9 Kb fragment, PCR was used to amplify human IL17 promoter region from genomic DNA using primers as follows: forward primer, 5′-[…]-3′ (SEQ ID NO. 6) (KpnI site is underlined) and reverse primer, 5′-[…]-3′ (SEQ ID NO. 7)(XhoI site is underlined). The resulting 1.9 kb DNA bands were excised, gel purified, and cloned into a pMD19-T Simple Vector (Takara). […] The 1.9 kb DNA fragment was released by double digestion with KpnI and XhoI and inserted into pIL17-lkb-luc to generate the luciferase reporter plasmid “pIL17-3kb-CNS-luc.” To overexpress RORγt, the full-length cDNA of human RORγt identical to the published sequence NM13 001001523 was cloned into pcDNA3.1 at the KpnI-NotI cloning sites to generate the RORγt overexpression plasmid “CDNA3.1DhRORγ49-8”. […]
Compounds were dissolved in DMSO at three concentrations, 10 mM, 400 uM and 16 uM, and were dispensed into 384-wells assay plate at 40 nl, 12.5 nl, 5 nl respectively. The volume was adjusted with pure DMSO to a give a final uniform volume of 40 nl Jurkat cells described above were counted and centrifuged. […]

[1] = In vitro percutaneous study (Franz diffusion cells, aqueous cream); assay type: in vitro ADME, human; conditions: 1.0% w/w in aqueous cream pH=6, 5 mg/cm^2, human skin from three donors
Excerpt: The in vitro percutaneous study is aimed to predict the level of percutaneous penetration obtained for a compound in a topical formulation for psoriasis. This assay coupled with the intrinsic potency of the compound are used to predict the likelihood of success of a compound to engage the target. The higher the ratio of the percutaneous penetration to the intrinsic potency, the higher the ratio of local skin concentration to the intrinsic potency and therefore the higher the chance of a compound to engage the target in a topical formulation.
The compounds were manufactured in a modified aqueous cream at pH=6.
The study was conducted with dermatomed abdominal human skin sourced from three skin donors using 2 cm2 Franz diffusion cells. The receiving fluid consisted of Bovine serum albumin (4% w/v) in 0.1% w/v sodium azide in Phospate Buffer Saline and was heated at 37° C. in order to obtain 32° C. at the skin surface. The cream formulation was applied on the donor side at a 10 mg dose, i.e. 5 mg/cm^2. The samples taken at the following time points: t=0, 3, 6, 9 and 24 h. The receiver samples were then assayed using a method based upon protein precipitation with acetonitrile followed by LC/MS/MS analysis. The percutaneous flux (in ng/cm^2/hr) was determined using the individual API (in a multiple composition) that had permeated into the receiver compartment over 24 hrs per cm^2.

Mouse CD4+ cells = assay: Th17 cell differentiation assay (IL-17 ELISA); assay type: cell-based; conditions: table with percutaneous study
Procedure: Mouse CD4+cells were purified using the CD4+ T Cell Isolation II Kit according to manufacturer's instructions (Miltenyi Biotec). 96 well plates were pre-coated with anti-mCD3 antibody. Un-coated wells were used as controls. CD4+ Cells were resuspended in RPMI 1640 complete medium and were added to the 96-well plates. Cytokine cocktail and the compound were then added to the wells. Antibodies and cytokines (all from R&D Systems) used in the assay were selected from the following: anti-mCD3; anti-mCD28; anti-mIFNγ; anti-mIL4; mIL-6; mIL-23; mIL-1β; hTGF-β1. The culture was incubated at 37° C. for 3 days and supernatants were collected for ELISA. The IL-17 ELISAs were performed according to manufacturer's instructions (R&D Systems). The results were analyzed using Prism software with non-linear regression to determine pIC50.

IC50 (RORγ)	Flux over 24 hrs [1]	IC50 (Mouse CD4+ cells; read-out: Th17 cell differentiation assay IC50)	IC50 (Mouse CD4+ cells; read-out: Th17 cell differentiation assay pIC50 (converted))	SMILES
> 10000 nM	–	–	–	Cc1cnc(C(=O)Nc2cc(F)cc(CN3CCN(C(=O)C4CCCC4)[C@@H](C)C3)c2C)cn1 [Example 36, (S)-N-(3-((4-(cyclopentanecarbonyl)-3-methylpiperazin-1-yl)methyl)-5-fluoro-2-methylphenyl)-5-methylpyrazine-2-carboxamide]
–	3.12 ng/cm^2/hr	9.3 ng/mL	20 nM	Cc1ccc(C(=O)Nc2cc(F)cc(CN3CCN(C(=O)C4CC(C)(C)C4)[C@@H](C)C3)c2C)cn1 [Example 164, (S)-N-(3-((4-(3,3-dimethylcyclobutanecarbonyl)-3-methylpiperazin-1-yl)methyl)-5-fluoro-2-methylphenyl)-6-methylnicotinamide]
